Reference: PubChem BioAssay AID256 (DTP/NCI, 2004)
Inconclusive results and toxic doses are left out. The calls were made as follows: active = survival T/C of 150% or more; inactive = T/C below 125% in these data.

System: CD2F1 mice, L1210 leukemia ip, survival T/C
Assay: NCI In Vivo Anticancer Drug Screen. Data for tumor model L1210 Leukemia (intraperitoneal) in CD2F1 (CDF1) mice
Details: higher = longer survival
Description: The antitumor activity of compounds was measured in mice bearing transplantable tumors. Survival or tumor size were measured and the results are expressed as the measurement made in the treated group (T) divided by the measurement made in the vehicle treated control group (C). The tumor model used in this assay is L1210 Leukemia (intraperitoneal) in CD2F1 (CDF1) mice

[1] = endpoint: mean survival time, dose: 50.0 mg/kg/injection, schedule: Q01DX009 (ip), vehicle: saline
[2] = endpoint: mean survival time, dose: 100.0 mg/kg/injection, schedule: Q01DX009 (ip), vehicle: saline
[3] = endpoint: mean survival time, dose: 200.0 mg/kg/injection, schedule: Q01DX009 (ip), vehicle: saline with Tween-80
[4] = endpoint: mean survival time, dose: 50.0 mg/kg/injection, schedule: Q01DX009 (ip), vehicle: Klucel (hydroxypropylcellulose) (HPC)
[5] = endpoint: mean survival time, dose: 200.0 mg/kg/injection, schedule: Q01DX009 (ip), vehicle: Klucel (hydroxypropylcellulose) (HPC)
[6] = endpoint: mean survival time, dose: 200.0 mg/kg/injection, schedule: Q01DX009 (ip), vehicle: saline
[7] = endpoint: mean survival time, dose: 400.0 mg/kg/injection, schedule: Q01DX009 (ip), vehicle: saline
[8] = endpoint: mean survival time, dose: 50.0 mg/kg/injection, schedule: Q01DX009 (ip), vehicle: saline with Tween-80
[9] = endpoint: mean survival time, dose: 100.0 mg/kg/injection, schedule: Q01DX009 (ip), vehicle: saline with Tween-80
[10] = endpoint: mean survival time, dose: 50.0 mg/kg/injection, schedule: Q04DX002 (ip), vehicle: saline with Tween-80
[11] = endpoint: mean survival time, dose: 12.5 mg/kg/injection, schedule: Q01DX009 (ip), vehicle: saline with Tween-80
[12] = endpoint: mean survival time, dose: 25.0 mg/kg/injection, schedule: Q01DX009 (ip), vehicle: saline with Tween-80
[13] = endpoint: mean survival time, dose: 75.0 mg/kg/injection, schedule: Q01DX001 (ip), vehicle: saline
[14] = endpoint: mean survival time, dose: 150.0 mg/kg/injection, schedule: Q01DX001 (ip), vehicle: saline
[15] = endpoint: mean survival time, dose: 400.0 mg/kg/injection, schedule: Q01DX009 (ip), vehicle: saline with Tween-80
[16] = endpoint: mean survival time, dose: 100.0 mg/kg/injection, schedule: Q04DX002 (ip), vehicle: saline with Tween-80
[17] = endpoint: mean survival time, dose: 200.0 mg/kg/injection, schedule: Q04DX002 (ip), vehicle: saline with Tween-80
[18] = endpoint: mean survival time, dose: 100.0 mg/kg/injection, schedule: Q04DX003 (ip), vehicle: saline with Tween-80
[19] = endpoint: mean survival time, dose: 200.0 mg/kg/injection, schedule: Q04DX003 (ip), vehicle: saline with Tween-80
[20] = endpoint: mean survival time, dose: 400.0 mg/kg/injection, schedule: Q04DX003 (ip), vehicle: saline with Tween-80

Measured: T/C

COc1ncnc2c1c(C#N)cn2C1OC(CO)C(O)C1O (centres undefined)
inactive: endpoint: mean survival time, dose: 6.25 mg/kg/injection, schedule: Q01DX009 (ip), vehicle: saline 117 % of control | endpoint: mean survival time, dose: 25.0 mg/kg/injection, schedule: Q01DX009 (ip), vehicle: saline 109 % of control | [1] 124 % of control | [2] 91 % of control

Nc1nc2nc(CBr)c(CBr)nc2c(=O)[nH]1
inactive: [3] 101 % of control

O=C1NC(=O)c2c(O)ccc(O)c21
inactive: endpoint: mean survival time, dose: 100.0 mg/kg/injection, schedule: Q01DX001 (ip), vehicle: Klucel (hydroxypropylcellulose) (HPC) 114 % of control | endpoint: mean survival time, dose: 200.0 mg/kg/injection, schedule: Q01DX001 (ip), vehicle: Klucel (hydroxypropylcellulose) (HPC) 91 % of control | endpoint: mean survival time, dose: 400.0 mg/kg/injection, schedule: Q01DX001 (ip), vehicle: Klucel (hydroxypropylcellulose) (HPC) 95 % of control

CCOC(=O)/C=C(\C)Sc1ccc(Cl)cc1
inactive: endpoint: mean survival time, dose: 100.0 mg/kg/injection, schedule: Q04DX003 (ip), vehicle: alcohol 92 % of control | endpoint: mean survival time, dose: 200.0 mg/kg/injection, schedule: Q04DX003 (ip), vehicle: alcohol 87 % of control | endpoint: mean survival time, dose: 400.0 mg/kg/injection, schedule: Q04DX003 (ip), vehicle: alcohol 102 % of control

CCOc1ccc(-c2nc3ccc(-c4nc5ccc(N6CCN(C)CC6)cc5[nH]4)cc3[nH]2)cc1
inactive: endpoint: median survival time, dose: 0.75 mg/kg/injection, schedule: Q01DX009 (ip), vehicle: saline 112 % of control | endpoint: median survival time, dose: 0.75 mg/kg/injection, schedule: Q01DX009 (ip), vehicle: suspension in saline 94 % of control | endpoint: median survival time, dose: 1.5 mg/kg/injection, schedule: Q01DX009 (ip), vehicle: saline 112 % of control | endpoint: median survival time, dose: 1.5 mg/kg/injection, schedule: Q01DX009 (ip), vehicle: suspension in saline 95 % of control | endpoint: median survival time, dose: 3.0 mg/kg/injection, schedule: Q01DX009 (ip), vehicle: suspension in saline 104 % of control | endpoint: median survival time, dose: 6.0 mg/kg/injection, schedule: Q01DX009 (ip), vehicle: suspension in saline 105 % of control | endpoint: median survival time, dose: 12.0 mg/kg/injection, schedule: Q01DX009 (ip), vehicle: suspension in saline 104 % of control | endpoint: median survival time, dose: 24.0 mg/kg/injection, schedule: Q01DX009 (ip), vehicle: saline 118 % of control | endpoint: median survival time, dose: 24.0 mg/kg/injection, schedule: Q01DX009 (ip), vehicle: suspension in saline 117 % of control

CC1=NNC(C)(C)C1
inactive: endpoint: mean survival time, dose: 25.0 mg/kg/injection, schedule: Q01DX009 (ip), vehicle: Klucel (hydroxypropylcellulose) (HPC) 96 % of control | [4] 97 % of control | endpoint: mean survival time, dose: 100.0 mg/kg/injection, schedule: Q01DX009 (ip), vehicle: Klucel (hydroxypropylcellulose) (HPC) 92 % of control | [2] 102 % of control | [5] 97 % of control | [6] 105 % of control | endpoint: mean survival time, dose: 400.0 mg/kg/injection, schedule: Q01DX009 (ip), vehicle: Klucel (hydroxypropylcellulose) (HPC) 97 % of control | [7] 103 % of control

O=C(Nc1c(Cl)cccc1Cl)OCCOc1ccc(Br)cc1
inactive: [8] 100 % of control | [9] 103 % of control | [3] 107 % of control

CCSc1nc(C)cc(Cl)n1
inactive: [8] 102 % of control | [9] 104 % of control | [3] 105 % of control

C#CCOC1CCCCC1O (centres undefined)
inactive: endpoint: mean survival time, dose: 100.0 mg/kg/injection, schedule: Q04DX003 (ip), vehicle: acetone 101 % of control

N#CC(=N)N1CCN(C(=N)C#N)CC1
inactive: endpoint: mean survival time, dose: 25.0 mg/kg/injection, schedule: Q04DX002 (ip), vehicle: saline with Tween-80 93 % of control | [10] 86 % of control | endpoint: mean survival time, dose: 100.0 mg/kg/injection, schedule: Q01DX001 (ip), vehicle: saline 97 % of control

CCCC1OC(C)CC(C)(C)O1 (centres undefined)
inactive: [1] 94 % of control | [2] 110 % of control | [6] 90 % of control

CN1CCN(C(=S)S)CC1
inactive: [11] 100 % of control | [12] 95 % of control | [8] 100 % of control

CC1(O)Nc2nc3c(ncn3C3OC(CO)C(O)C3O)c(=O)n2C1O (centres undefined)
inactive: endpoint: mean survival time, dose: 12.5 mg/kg/injection, schedule: Q01DX005 (ip), vehicle: water 106 % of control | endpoint: mean survival time, dose: 25.0 mg/kg/injection, schedule: Q01DX005 (ip), vehicle: water 95 % of control | endpoint: mean survival time, dose: 50.0 mg/kg/injection, schedule: Q01DX005 (ip), vehicle: water 93 % of control | endpoint: mean survival time, dose: 100.0 mg/kg/injection, schedule: Q01DX005 (ip), vehicle: water 101 % of control | endpoint: mean survival time, dose: 200.0 mg/kg/injection, schedule: Q01DX005 (ip), vehicle: water 95 % of control

CCN1CCC2OCOC2C1 (centres undefined)
inactive: [13] 102 % of control | [14] 102 % of control

CC(=O)c1ccc(N=Nc2c(N)nc(N)[nH]c2=O)cc1
inactive: [9] 86 % of control | [3] 105 % of control | [15] 102 % of control

COCCN=C(N)C(N)=NCCOC
inactive: [2] 105 % of control | [6] 103 % of control | [7] 102 % of control

Cc1ccc(C(=O)C=C(C(F)(F)F)C(F)(F)F)cc1
inactive: endpoint: mean survival time, dose: 6.25 mg/kg/injection, schedule: Q01DX009 (ip), vehicle: saline with Tween-80 102 % of control | [11] 98 % of control | [12] 98 % of control

Cc1cc(NC(=O)Nc2cc(Cl)ccc2C)no1
inactive: [4] 98 % of control | [5] 91 % of control

O=C1c2ccccc2C(=O)C1c1cc2ccccc2cn1
inactive: [10] 91 % of control | endpoint: mean survival time, dose: 100.0 mg/kg/injection, schedule: Q01DX001 (ip), vehicle: saline with Tween-80 87 % of control | [16] 95 % of control | endpoint: mean survival time, dose: 200.0 mg/kg/injection, schedule: Q01DX001 (ip), vehicle: saline with Tween-80 91 % of control | [17] 91 % of control

Cn1cccc1-c1cccnc1
inactive: [13] 97 % of control | [14] 100 % of control

C=C1C(=O)O[C@@H]2[C@H]1[C@@H](OC(C)=O)C[C@H](C)[C@@H]1CCC(=O)[C@@]21C
inactive: [9] 93 % of control | [3] 89 % of control | [15] 92 % of control

OC1(Cc2ccccc2)CCCCCC1
inactive: endpoint: mean survival time, dose: 100.0 mg/kg/injection, schedule: Q04DX002 (ip), vehicle: other 95 % of control | endpoint: mean survival time, dose: 200.0 mg/kg/injection, schedule: Q04DX002 (ip), vehicle: other 92 % of control | endpoint: mean survival time, dose: 400.0 mg/kg/injection, schedule: Q04DX002 (ip), vehicle: other 92 % of control

O=C1c2ccccc2C2c3ccccc3CCN12 (centres undefined)
inactive: [9] 103 % of control | [18] 104 % of control | [3] 97 % of control | [19] 102 % of control | [15] 97 % of control | [20] 102 % of control

Clc1ccc(-c2ccncc2)cc1
inactive: [16] 101 % of control | [17] 108 % of control | endpoint: mean survival time, dose: 400.0 mg/kg/injection, schedule: Q04DX002 (ip), vehicle: saline with Tween-80 103 % of control

O=C(Nc1cccc2ccccc12)SCc1ccccc1
inactive: endpoint: mean survival time, dose: 50.0 mg/kg/injection, schedule: Q04DX002 (ip), vehicle: Klucel (hydroxypropylcellulose) (HPC) 88 % of control | endpoint: mean survival time, dose: 100.0 mg/kg/injection, schedule: Q04DX002 (ip), vehicle: Klucel (hydroxypropylcellulose) (HPC) 106 % of control | endpoint: mean survival time, dose: 200.0 mg/kg/injection, schedule: Q04DX002 (ip), vehicle: Klucel (hydroxypropylcellulose) (HPC) 95 % of control

CCC(C(=O)OCCNC1CCCCC1)c1ccccc1 (centres undefined)
inactive: [13] 110 % of control

Fc1c(F)c(N(c2ccccc2)c2ccccc2)c(F)c(F)c1N(c1ccccc1)c1ccccc1
inactive: [18] 95 % of control | [19] 95 % of control | [20] 93 % of control

CC(=O)C(CCN(C)C)(c1ccccc1)c1ccccc1
inactive: [13] 102 % of control | [14] 91 % of control

CCOC1([N+](=O)[O-])c2ccccc2-c2nc3ccccc3cc21 (centres undefined)
inactive: endpoint: mean survival time, dose: 200.0 mg/kg/injection, schedule: Q04DX003 (ip), vehicle: Klucel (hydroxypropylcellulose) (HPC) 97 % of control

CN(C)CCCNCC#CCNCCCN(C)C
inactive: [1] 100 % of control | [2] 98 % of control | endpoint: mean survival time, dose: 100.0 mg/kg/injection, schedule: Q04DX003 (ip), vehicle: saline 101 % of control | [6] 96 % of control | endpoint: mean survival time, dose: 200.0 mg/kg/injection, schedule: Q04DX003 (ip), vehicle: saline 95 % of control
